The record followed here is ChEMBL document CHEMBL1133126, “Non-peptidic phenyl-based thrombin inhibitors: exploring structural requirements of the S1 specificity pocket with amidines” (Bioorg Med Chem Lett, 2000).

Test [1] has as its target T1, Coagulation factor X (Homo sapiens, UniProt P00742). Nature of the test: Compound was evaluated for inhibition of Coagulation factor X.
A further test concerns the target T2, Serine protease 1 (Bos taurus, UniProt P00760).
T2 sequence (P00760 whole entry): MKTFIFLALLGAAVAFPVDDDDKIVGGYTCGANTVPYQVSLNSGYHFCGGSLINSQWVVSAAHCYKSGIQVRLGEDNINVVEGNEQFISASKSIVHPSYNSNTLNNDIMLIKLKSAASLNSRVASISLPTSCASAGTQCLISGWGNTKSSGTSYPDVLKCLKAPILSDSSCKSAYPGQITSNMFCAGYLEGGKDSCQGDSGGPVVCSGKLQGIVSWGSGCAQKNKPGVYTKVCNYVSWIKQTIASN
Nature of the test: Compound was evaluated for inhibition of Trypsin.

Test [2] has as its target T3, Serine protease 1 (Bos taurus) (UniProt P00760).
T3 sequence (whole entry): T2 sequence (P00760 whole entry)
The test can be described thus: Compound was evaluated for inhibition of Trypsin at 1 uM.

Test [3] addresses T4, Chymotrypsin-C (Homo sapiens) (UniProt Q99895).
T4 sequence (whole entry): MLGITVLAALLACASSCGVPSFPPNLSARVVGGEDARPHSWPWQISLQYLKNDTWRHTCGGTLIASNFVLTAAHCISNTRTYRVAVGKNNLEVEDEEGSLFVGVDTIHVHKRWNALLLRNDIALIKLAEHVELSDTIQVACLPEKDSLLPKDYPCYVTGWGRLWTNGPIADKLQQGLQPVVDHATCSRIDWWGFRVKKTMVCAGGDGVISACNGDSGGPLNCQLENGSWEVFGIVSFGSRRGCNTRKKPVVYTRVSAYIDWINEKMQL
Nature of the test: Compound was evaluated for inhibition of Serine protease chymotrypsin at 1 uM.

The target in test [4] is T1, Coagulation factor X. Nature of the test: Compound was evaluated for inhibition of Coagulation factor X at 1 uM.
The next test addresses Prothrombin (Homo sapiens, UniProt P00734). The test can be described thus: Compound was evaluated for inhibition of Thrombin.
Test [5] addresses T1, Coagulation factor X. The test can be described thus: Compound was evaluated for inhibition of Coagulation factor X at […].
In test [6] the target is T3, Serine protease 1 (Bos taurus). The test can be described thus: Compound was evaluated for inhibition of Trypsin at 15 uM.
Test [7] concerns the target T1, Coagulation factor X. Nature of the test: Compound was evaluated for inhibition of Coagulation factor X at 1.6 uM.
Test [8] addresses T3, Serine protease 1 (Bos taurus). Nature of the test: Compound was evaluated for inhibition of Trypsin at 1.6 uM.
Test [9] has as its target T4, Chymotrypsin-C (Homo sapiens). Nature of the test: Compound was evaluated for inhibition of Serine protease chymotrypsin at 1.7 uM.
For test [10] the target is unchanged. Nature of the test: Compound was evaluated for inhibition of Serine protease chymotrypsin at […].
Test [11] deals with T3, Serine protease 1 (Bos taurus). The test can be described thus: Compound was evaluated for inhibition of Trypsin at uM. To be noted: concentration not given here.
Test [12] deals with T1, Coagulation factor X. The test can be described thus: Compound was evaluated for inhibition of Coagulation factor X at 7.5 uM.
Test [13] has as its target T4, Chymotrypsin-C (Homo sapiens). Nature of the test: Compound was evaluated for inhibition of Serine protease chymotrypsin at 15 uM.

T1 sequence (P00742 41-179 limits assumed): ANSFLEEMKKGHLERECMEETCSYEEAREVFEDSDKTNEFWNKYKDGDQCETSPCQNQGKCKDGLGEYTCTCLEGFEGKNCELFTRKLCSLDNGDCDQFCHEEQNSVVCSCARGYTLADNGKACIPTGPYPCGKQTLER
T1 sequence (P00742 235-488 limits assumed): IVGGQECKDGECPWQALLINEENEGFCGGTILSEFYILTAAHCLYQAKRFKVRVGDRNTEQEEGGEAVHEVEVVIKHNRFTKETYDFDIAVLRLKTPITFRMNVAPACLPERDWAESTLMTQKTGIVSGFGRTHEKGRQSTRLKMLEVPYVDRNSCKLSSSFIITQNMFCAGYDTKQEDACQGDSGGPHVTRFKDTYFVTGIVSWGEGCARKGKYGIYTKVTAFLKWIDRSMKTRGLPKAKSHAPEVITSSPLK

For the molecule `Cc1cc(OCC2CCN(C(=N)N)CC2)cc(OS(=O)(=O)c2ccccc2Cl)c1`, the Ki at Coagulation factor X [1] and on Serine protease 1 was above 15 µM throughout.

As for `CC(=N)N1CCC(COc2cc(C)cc(OS(=O)(=O)c3ccccc3Cl)c2)CC1`, the inhibition (in test [2]; in test [3]; at Coagulation factor X [4]) was 0% each time.

As to `Cc1cc(OCCCCCC(=N)N)cc(OS(=O)(=O)c2ccccc2Cl)c1`, the Ki (as a rule, a measure of affinity in units of concentration, obtained from inhibition or displacement) on Prothrombin worked out at 0.069 µM. The inhibition (at Coagulation factor X [5]; in test [6]) was 0% each time.

For `Cc1cc(OC[C@H]2CC[C@H](C(=N)N)CC2)cc(OS(=O)(=O)c2ccccc2Cl)c1`, at Prothrombin, the affinity, expressed as Ki, was 2.1 µM. The inhibition (on Coagulation factor X [7]; in test [8]) was 0% throughout.

With `Cc1cc(OCc2ccc(C(=N)N)cc2)cc(OS(=O)(=O)c2ccccc2Cl)c1`, the Ki is 0.11 µM at Prothrombin, 17 µM on Coagulation factor X [1] and 2.7 µM at Serine protease 1. Further, the inhibition (as a rule, the change of the read-out against control, counted positive when it falls) in test [9] stood at 0%.

For `Cc1cc(OCc2cccc(C(=N)N)c2)cc(OS(=O)(=O)c2ccccc2Cl)c1`, the Ki at Prothrombin is 0.099 µM; at Serine protease 1, 1.5 µM. Moreover, in [10], the inhibition turned out to be 0%.

At Prothrombin, `Cc1cc(OCCCC(=N)N)cc(OS(=O)(=O)c2ccccc2Cl)c1` registered a Ki of 0.46 µM. Also, the inhibition (in [11]; at Coagulation factor X [12]; in test [13]) was 0% in each case.

Consider `Cc1cc(OCCCCN=C(N)N)cc(OS(=O)(=O)c2ccccc2Cl)c1`, for which the Ki on Serine protease 1 amounted to 42 µM.
